Data from ChEMBL document CHEMBL1909046, “DrugMatrix in vitro pharmacology data”.

Assays:
Melanocortin receptor 5 = Melanocortin receptor 5 (Homo sapiens, UniProt P33032); type: cell membranes, Membrane; conditions: hek293; also: in other assays of this panel Not Active means under 50% inhibition at 10 µM
[1] = biological target: T1, Vasoactive intestinal polypeptide receptor 1 (Homo sapiens, UniProt P32241); type: cell membranes, Membrane; conditions: ht-29; also: in other assays of this panel Not Active means under 50% inhibition at 10 µM
T1 sequence (P32241 whole entry): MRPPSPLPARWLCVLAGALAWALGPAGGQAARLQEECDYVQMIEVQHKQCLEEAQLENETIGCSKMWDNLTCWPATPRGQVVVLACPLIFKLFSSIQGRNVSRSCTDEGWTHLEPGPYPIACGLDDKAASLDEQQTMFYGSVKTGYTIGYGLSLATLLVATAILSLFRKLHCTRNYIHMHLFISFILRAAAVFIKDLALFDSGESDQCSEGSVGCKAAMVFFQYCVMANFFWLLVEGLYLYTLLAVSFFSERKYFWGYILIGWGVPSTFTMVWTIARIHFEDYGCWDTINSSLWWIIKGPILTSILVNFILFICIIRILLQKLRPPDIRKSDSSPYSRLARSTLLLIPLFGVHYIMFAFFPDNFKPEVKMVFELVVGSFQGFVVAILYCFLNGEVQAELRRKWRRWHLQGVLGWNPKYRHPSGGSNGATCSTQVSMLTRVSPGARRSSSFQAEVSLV

[2] = biological target: Sodium-dependent noradrenaline transporter (Homo sapiens, UniProt P23975); experiment: DRUGMATRIX: Norepinephrine Transporter radioligand binding (ligand: [125I] RTI-55); type: cell membranes, MDCK, Membrane; conditions: mdck; Not Active = under 50% inhibition at 10 µM
Sodium-dependent noradrenaline transporter, sequence (P23975 whole entry): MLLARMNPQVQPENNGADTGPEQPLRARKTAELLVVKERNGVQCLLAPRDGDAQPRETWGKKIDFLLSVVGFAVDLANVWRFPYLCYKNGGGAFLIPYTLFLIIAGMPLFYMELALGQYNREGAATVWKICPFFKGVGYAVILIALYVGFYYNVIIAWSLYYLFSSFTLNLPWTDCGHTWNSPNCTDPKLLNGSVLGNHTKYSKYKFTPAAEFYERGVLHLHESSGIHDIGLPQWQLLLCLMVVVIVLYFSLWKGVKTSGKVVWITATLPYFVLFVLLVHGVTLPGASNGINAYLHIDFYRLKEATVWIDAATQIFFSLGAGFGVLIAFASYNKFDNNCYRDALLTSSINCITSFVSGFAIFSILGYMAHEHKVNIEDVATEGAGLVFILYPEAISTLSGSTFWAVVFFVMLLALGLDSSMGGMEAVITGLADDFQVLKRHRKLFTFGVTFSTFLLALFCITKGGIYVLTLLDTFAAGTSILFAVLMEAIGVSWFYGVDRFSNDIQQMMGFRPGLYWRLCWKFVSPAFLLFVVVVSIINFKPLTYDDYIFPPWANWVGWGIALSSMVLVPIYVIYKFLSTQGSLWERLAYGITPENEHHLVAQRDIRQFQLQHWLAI

Carbonic anhydrase 2 = Carbonic anhydrase 2 (Homo sapiens, UniProt P00918); experiment: DRUGMATRIX: Carbonic Anhydrase II enzyme inhibition (substrate: 4-Nitrophenyl acetate (4-NPA)); type: tissue-based, Erythrocyte; conditions: erythrocyte; Not Active = under 50% inhibition at 10 µM
Acetylcholinesterase = Acetylcholinesterase (Homo sapiens, UniProt P22303); experiment: DRUGMATRIX: Acetylcholinesterase enzyme inhibition (substrate: acetylthiocholine); type: cell-based, HEK293; conditions: hek293; Not Active = under 50% inhibition at 10 µM
Acetylcholinesterase, sequence (P22303 whole entry): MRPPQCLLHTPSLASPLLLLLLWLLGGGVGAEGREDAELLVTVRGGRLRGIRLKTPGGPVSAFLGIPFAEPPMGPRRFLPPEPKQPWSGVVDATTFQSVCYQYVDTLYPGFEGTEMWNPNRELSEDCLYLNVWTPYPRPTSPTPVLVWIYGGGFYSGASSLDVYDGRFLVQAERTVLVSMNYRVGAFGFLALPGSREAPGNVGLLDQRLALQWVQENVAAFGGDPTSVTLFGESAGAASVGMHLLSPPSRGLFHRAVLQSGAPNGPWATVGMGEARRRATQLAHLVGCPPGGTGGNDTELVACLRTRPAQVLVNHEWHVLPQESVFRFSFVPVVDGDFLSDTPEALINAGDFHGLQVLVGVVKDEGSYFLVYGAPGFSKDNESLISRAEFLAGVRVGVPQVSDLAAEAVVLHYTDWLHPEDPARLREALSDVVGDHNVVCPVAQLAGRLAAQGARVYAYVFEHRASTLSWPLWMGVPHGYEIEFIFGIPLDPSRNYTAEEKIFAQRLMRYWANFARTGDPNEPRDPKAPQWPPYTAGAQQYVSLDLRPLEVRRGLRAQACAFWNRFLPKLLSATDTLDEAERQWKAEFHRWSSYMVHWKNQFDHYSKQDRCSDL

[3] = biological target: Beta-1 adrenergic receptor (Homo sapiens, UniProt P08588); experiment: DRUGMATRIX: Adrenergic beta1 radioligand binding (ligand: [125I] Cyanopindolol); type: cell membranes, CHO-K1, Membrane; conditions: cho-k1; Not Active = under 50% inhibition at 10 µM
Beta-1 adrenergic receptor, sequence (P08588 whole entry): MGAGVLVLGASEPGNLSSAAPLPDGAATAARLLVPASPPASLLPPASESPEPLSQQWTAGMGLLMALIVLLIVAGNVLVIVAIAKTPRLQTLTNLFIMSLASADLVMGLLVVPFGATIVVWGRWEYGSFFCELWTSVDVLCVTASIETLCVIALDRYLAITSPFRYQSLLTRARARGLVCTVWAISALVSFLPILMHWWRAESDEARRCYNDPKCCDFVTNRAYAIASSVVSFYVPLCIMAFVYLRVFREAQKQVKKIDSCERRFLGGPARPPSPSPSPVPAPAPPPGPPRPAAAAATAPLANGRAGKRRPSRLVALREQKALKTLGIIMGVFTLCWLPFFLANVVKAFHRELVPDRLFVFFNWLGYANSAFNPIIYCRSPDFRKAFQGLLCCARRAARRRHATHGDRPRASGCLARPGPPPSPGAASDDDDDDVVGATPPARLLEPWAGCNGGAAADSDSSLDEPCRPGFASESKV

[4] = DRUGMATRIX: Platelet-Derived Growth Factor (PDGF) radioligand binding (ligand: [125I] PDGF); type: cell-based; conditions: nih3t3; Not Active = under 50% inhibition at 10 µM

Melanocortin receptor 5, sequence (P33032 whole entry): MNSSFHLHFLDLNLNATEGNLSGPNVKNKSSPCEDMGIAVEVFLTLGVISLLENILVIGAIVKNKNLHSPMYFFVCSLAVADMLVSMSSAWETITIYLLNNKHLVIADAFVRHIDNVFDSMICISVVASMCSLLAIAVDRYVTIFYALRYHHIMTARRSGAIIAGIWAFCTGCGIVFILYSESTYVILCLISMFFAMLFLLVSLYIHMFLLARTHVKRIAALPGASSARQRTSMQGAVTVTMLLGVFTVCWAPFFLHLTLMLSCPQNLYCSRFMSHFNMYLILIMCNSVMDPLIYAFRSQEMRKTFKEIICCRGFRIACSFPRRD

CCC1=C[C@@H]2CN(C1)Cc1c([nH]c3ccccc13)[C@@](C(=O)OC)(c1cc3c(cc1OC)N(C)[C@H]1[C@@](O)(C(=O)OC)[C@H](OC(C)=O)[C@]4(CC)C=CCN5CC[C@]31[C@@H]54)C2 [VINORELBINE]
Not Active: IC50 (Melanocortin receptor 5) | IC50 [1] | IC50 [2] | IC50 (Carbonic anhydrase 2) | IC50 (Acetylcholinesterase) | IC50 [3] | IC50 [4] | Ki [4]

CADMIUM DICHLORIDE
Not Active: IC50 (Melanocortin receptor 5) | Ki (Melanocortin receptor 5) | IC50 [1] | Ki [1] | IC50 [2] | Ki [2] | IC50 (Carbonic anhydrase 2) | Ki (Carbonic anhydrase 2) | IC50 (Acetylcholinesterase) | Ki (Acetylcholinesterase) | IC50 [3] | Ki [3] | IC50 [4] | Ki [4]
